The source of these data is US5998521A, “Aqueous fluoropolymer compositions and method of preparing the same” (3M Innovative Properties Company, priority 1996, dated 1999).

Each structure is given as a SMILES string.

Series [1] is described as follows: Hydrolytic stability of esters in concentrated aqueous ammonium hydroxide. The format is physicochemical. The conditions noted are these: 2 days. The text has this:
The acrylate and methacrylate esters from Examples D1-D11 were fully recoverable with essentially no degradation after being stirred with concentrated aqueous ammonium hydroxide for a period of 2 days.

Series [2] deals with rats. In words: Acute LD50, one-time feeding study of rats over 21 days. The following applies: for acute toxicity: rat, in vivo. The class given is in vivo, rat. Here is the method: (§1) Acute LD50 measurements for a one-time feeding study of rats were determined over a 21 day period for both the α-branched perfluorocarboxylate salt, C7 F15 CF(CF3)COO^- NH4^+, and its straight chain isomer, CF3 (CF2)8 COO^- NH4^+.

Assay in series [3]: as above
The class given is in vivo, rat. The following applies: rat, in vivo, po; one-time feeding, rats, 21 day period. Here is the method: as §1

Series [4] has as its system rats. The following applies: Goeche-Flora et al.; cited from earlier work.
Series [5] is described as follows: Emulsion copolymerization of hexafluoropropylene and vinylidene fluoride. The text has this: The following procedure was used to evaluate C7 F15 CF(CF3)COO^- NH4^+ (from Ex. M1) as an emulsifier to copolymerize hexafluoropropylene (HFP) and vinylidene fluoride.
A 1 gallon, vertically agitated stainless steel reactor with pressure and temperature controls was evacuated and twice purged with nitrogen. Using an isolated vacuum, a solution comprised of 2 g of ammonium persulfate (initiator) and 6 g of dipotassium phosphate dissolved in 2800 g of deionized water was introduced into the reactor. The remaining vacuum on the reactor was vented with nitrogen, and the solution was degassed twice under agitation using alternate vacuum and nitrogen purges. A sufficient amount of a solution of C7 F15 CF(CF3)COO^- NH4^+ in approximately 20 g of 60-70° C. deionized water was introduced to the reactor under isolated vacuum to give a calculated final concentration of 350 ppm emulsifier in the aqueous solution. The reactor was vented with nitrogen, the solution was agitated very briefly, and the reactor was evacuated of nitrogen and isolated. Then the reactor was vented with hexafluoropropylene monomer to a pressure of approximately 10 psig (1280 torr total pressure), and the temperature of the batch was raised to 72° C. with high agitation. Maintaining the temperature at 72° C., a monomer mixture of 60% (wt) of vinylidene fluoride and 40% (wt) hexafluoropropylene was fed from a tared gas cylinder into the head space of the reactor to maintain a reactor pressure of 130 psig (7480 total pressure). After feeding in about 1 kg of monomer blend (approximately 3.75 hours duration), the introduction of monomer was ceased, the reaction was allowed to cool to room temperature, and any residual unreacted monomer was vented.
The resulting latex polymer was drained from the reactor, and percent solids of the latex was determined to be 25% by weight as measured by drying 10 g of latex in a forced air oven for 16 hours at 105° C.
The reactor body was separated from the reactor head, and a visual inspection of the reactor was made to determine the amount of coagulated polymer in the reactor (the amount should be minimal in a good polymerization reaction). A qualitative rating was assessed, ranging from "none" to "little" to "some."
The latex stability was determined by half filling a 16 oz (450 mL) jar with latex and shaking several hours in the horizontal position, quantitatively rating the latex after shaking using a 3-point scale ranging from 0=very stable to 3=unstable.
Particle size in the latex was determined using 90° scattering on a Coulter sub-micron particle size analyzer.
Degree of foaming was rated using the following qualitative scale: 0=not foamy, 1=slightly foamy, 2=moderately foamy, and 3=very foamy.
In Example P2, the same experiment was run as in Example P1, except that the concentration of C7 F15 CF(CF3)COO^- NH4^+emulsifier was raised to 3500 ppm, the reaction time decreased from 3.75 to 3.5 hours, and the reaction temperature increased from 72° C. to 78° C.
In Comparative Examples P3-P6, the same experiment was run as in Example P1, except that C8 F17 SO2 N(C2 H5)CH2 COO^- K^+ (Fluorad™ FC-128 Fluorochemical Surfactant, available from 3M Company, St. Paul, Minn.), C7 F15 COO^- H4 N^+ (Fluorad™ FC-143 Fluorochemical Surfactant), and Surflon™ S111S Fluorochemical Surfactant (believed to be nominally telomer-based n-C9 F19 COO^- H4 N^+, commercially available from Asahi Glass Corp., Japan) were substituted for C7 F15 CF(CF3)COO^- HN^+ emulsifier.

Series [6] relates to rats. In words: Rat desiccator jar chamber test, exhaled degradation products. The format is in vivo. Here is the method: Additional biological testing of C7 F15 CF(CF3)COO^- NH4^+ in rats was conducted using the following test apparatus. An uptake desiccator jar chamber was designed with top and bottom portions, the top portion equipped with an inlet port, an outlet port, oxygen monitor and pressure gage. An oxygen gas tank supplied oxygen into the inlet port, and the oxygen level in the chamber was maintained at a normal ambient level as measured by the oxygen monitor and pressure gage. The outlet port was connected in series with a carbon dioxide scrubber and particulate filter, which in turn was connected to a loop containing a stainless steel bellows pump operating at about 2 L/min. Most of the gas in the loop was recycled into the inlet port, but about 100 mL/min was directed through a secondary loop to a gas chromatograph equipped with a 0.5 mL gas sampling loop.
A rat dosed at 500 mg/kg was placed in the bottom portion of the chamber, the top portion was attached, and the assembled chamber was placed in an ice-filled pan to allow for the condensation of water. The oxygen flow was started, and the exhaust gases were monitored for the presence of CF3 CF=CF(C6 F13) and C7 F15 CFHCF3, aqueous degradation products of C7 F15 CF(CF3)COOH, using known standards of this olefin and hydride in the gas chromatograph. […] After 24 minutes, one slight chromatographic peak was noted, corresponding to the monohydride. After 92 minutes, the peak became noticeably larger and a second peak formed, corresponding to the olefin.

Series [7] in a line: Surface tension and critical micelle concentration of aqueous surfactant solutions. The class given is physicochemical. The following applies: Table 5, deionized water; for Surf. Tens.: at the CMC. Here is the method:
Critical Micelle Concentration (CMC): The critical micelle concentration is defined as the concentration at which further surface tension is no longer lowered with increasing levels of surfactant. To determine CMC, surface tension is measured as a function of surfactant concentration using a K-12 Processor Tensiometer in conjunction with a 665 Dosimat automatic surfactant injection device (also commercially available from Kruss GmbH). Surface tension is then plotted vs. log concentration and the data points are connected. The resulting curve has a nearly horizontal flat portion at concentrations above the CMC and has a negative steep slope at concentrations below the CMC. The CMC is defined as the lowest surfactant concentration in the horizontal flat portion of the curve.
(§2) Then the critical micelle concentration (CMC) was determined for each surfactant.
as §2

Series [8] is described as follows: Thermogravimetric analysis of neat perfluorocarboxylate salts. The conditions noted are these: neat salt, nitrogen, 10° C./min. The format is physicochemical. The text has this:
Thermal degradation measurements were made on a series of neat perfluorocarboxylate salts, including several α-branched open chain structures (Examples N2-N9), a primarily linear open chain structure (Example N10-Fluorad™ FC-143 Fluorochemical Surfactant, commercially available from 3M Company, St. Paul, Minn.), and a closed chain (i.e., cyclic) structure (Example N11--made by the electrochemical fluorination of benzoic acid and hydrolysis in the presence of KOH, as described in U.S. Pat. No. 2,567,011 (Diesslin et al.)).
The perfluorocarboxylate salts were tested using a Perkin-Elmer TGA 7 thermogravimetric analysis apparatus and a salt sample size of approximately 5 mg, a heating rate of 10° C./min, and a nitrogen gas flow rate of 40-45 mL/min. Using the TGA 7 software, the following temperatures were recorded: (1) the onset temperature of decomposition, (2) the temperature at which 50% of the sample weight was lost, and (3) the temperature at which 90% of the sample weight was lost.

Another series relates to bacterial sludge. In words: Bacterial sludge contact test. The conditions noted are these: 28 days, ambient conditions. Here is the method:
(§3) The environmental stability of C6 F13 CF(CF3)COO^- NH4^+ was investigated under ambient conditions using a bacterial sludge contact test. In this test, bacterial sludge was obtained from the municipal waste treatment plant at Pig's Eye, Minn., the sludge was centrifuged to collect the water-insoluble high density solids, and was reconstituted in water to a standard level of about 2000 ppm of total suspended solids. A 5 mL aliquot of the 2000 ppm sludge in water was placed in each of several 20 mL vials, and enough of the carboxylate salt was added to each vial to achieve a concentration of about 496 ppm (1 millimolar). Each vial was tightly capped with a septum cap and was allowed to stand at room temperature. At intervals, the concentrations of perfluoroolefin and perfluoromonohydride gases in each headspace were measured by removing a gas sample from the space over the liquid, using a Hewlitt Packard Gas Chromatograph with a headspace sampling accessory. The peak areas determined from each gas sample were compared to a standard series made by placing increasing concentrations of a defined mixture of perfluoroolefin and perfluoromonohydride in water in the same types of vials, and subjecting the headspaces in the vials to the same analytical procedure. Results, given below, state the complete conversion relative to theoretical percent of the amount of perfluoroolefin/perfluoromonohydride mixture formed relative to that expected from complete conversion of the salt to volatile fluorocarbons. A control experiment using water with no sludge was also run at the 28 day test point.

The nature of series [9]: Bacterial sludge contact test. Here is the method: as §3
The nature of series [10]: Degradation in aqueous solution at room temperature over 1 year. The format is physicochemical. Here is the method:
The α-branched open chain ammonium salt compounds from Examples N3-N6 were dissolved in deionized water at a concentration of 5% by weight (0.5 g ammonium salt in 10 mL water) and were stored at room temperature.

`C=CC(=O)OCCOC(=O)C(F)(F)C(F)(F)C(F)(F)C(F)(F)C(F)(F)C(F)(F)C(F)(F)F` [C7 F15 COOCH2 CH2 OCOCH=CH2]: the hydrolytic stability entry in [1] is “readily hydrolyzed”.

For `O=C(O)C(F)(F)C(F)(F)C(F)(F)C(F)(F)C(F)(F)C(F)(F)C(F)(F)C(F)(F)C(F)(F)F` [C9 F19 COO^- NH4^+, CF3 (CF2)8 COO^- NH4^+, reference compound], the “acute toxicity” value in the series on rats [2] was “moderately toxic”. In the series on rats [2] (rats), the wasting syndrome entry was “Wasting syndrome was observed”. Moreover, in the series with rats [2] (rats, LD50), the “toxicity relative to the α-branched isomer” value was “ca. 10 times”. In series [3], this compound displayed an LD50 at 504 h of 50 to 100 mg/kg. The “toxicity (literature, words)” value in the series on rats [4] is reported as “moderately toxic”.

Consider `O=C(O)C(F)(C(F)(F)F)C(F)(F)C(F)(F)C(F)(F)C(F)(F)C(F)(F)C(F)(F)C(F)(F)F` (centres unmarked) [Example M14, C7 F15 CF(CF3)COO^- H4 N^+], for which the “Latex Stability” value in [5] (emulsifier 350 ppm) was determined as 2. In addition, the “Latex Stability” value in series [5] (emulsifier 3500 ppm) is listed as 0. The “olefin and monohydride in exhaust gas” value with rats [6] (after 217 minutes) was “both peaks became significantly larger”. Moreover, the “olefin and monohydride in exhaust gas” value with rats [6] (initially) was “no olefin or hydride were detected”. The metabolism and elimination entry with rats [6] (rat) is listed as “being metabolized by the rat to volatile metabolites which were eliminated from the rat via transpiration”. For the same compound, in the series with rats [6] (rat dosed at 500 mg/kg), the post-exposure observation entry was “no evidence of toxicity (death) or evidence of wasting syndrome” and the “time at which monohydride peak noted in exhaust gas” value came to 24 min. Moreover, the “time at which olefin peak formed in exhaust gas” value in the series with rats [6] (rat dosed at 500 mg/kg, monohydride peak noticeably larger) was found to be 92 min. Also, the “acute toxicity” value in the series on rats [2] (listed as C7 F15 CF(CF3)COO^- NH4) is listed as “relatively low toxicity”. The “acute toxicity” value in the series on rats [2] (listed as C7 F15 CF(CF3)COO^- NH4+) is given as “only slightly toxic”. In the series on rats [2] (rats), the “time of deaths from toxic doses” value is 2 to 3 days, the “time until rats began regaining weight” value is given as 3 days and the wasting syndrome result is given as “No wasting syndrome was noted”. In addition, the LD50 at 504 h in series [3] was in the range of 500 to 1000 mg/kg. Moreover, in series [7], the “Surf. Tens.” value came out at 16.5 dynes/cm and the CMC is given as 2500 ppm. For the same compound, in [8], the “Temperature for: 50% loss” value is 163 °C, the “Temperature for: 90% loss” value was determined as 174 °C and the “Temperature for: Onset” value amounted to 151 °C.

`O=C(O)C(F)(C(F)(F)F)C(F)(F)C(F)(F)C(F)(F)C(F)(F)C(F)(F)C(F)(F)F` (centres unmarked) [Example M16, C6 F13 CF(CF3)COO^- H4 N^+]: in series [8], the “Temperature for: 50% loss” value was determined as 179 °C, the “Temperature for: 90% loss” value worked out at 193 °C and the “Temperature for: Onset” value was 165 °C. In addition, in the series with bacterial sludge, the “effect of sludge on amount of perfluoroolefin/perfluoromonohydride” value was “more than doubled”. Further, the percent perfluoroolefin/perfluoromonohydride formed at 672 h, 1000 µM in [9] (Day 28, no sludge) is 32%. The same compound came in with a percent perfluoroolefin/perfluoromonohydride formed at 24 h, 1000 µM in series [9] (bacterial sludge, Day 1, with sludge) of 4%. In [9] (bacterial sludge, Day 4, with sludge), this compound yielded a percent perfluoroolefin/perfluoromonohydride formed at 96 h, 1000 µM of 13%. The same compound yielded a percent perfluoroolefin/perfluoromonohydride formed at 168 h, 1000 µM in series [9] (bacterial sludge, Day 7, with sludge) of 23%. This compound displayed a percent perfluoroolefin/perfluoromonohydride formed at 336 h, 1000 µM in [9] (bacterial sludge, Day 14, with sludge) of 44%. The same compound came in with a percent perfluoroolefin/perfluoromonohydride formed at 672 h, 1000 µM in series [9] (bacterial sludge, Day 28, with sludge) of 70%.

With `O=C(O)C(F)(F)C(F)(F)C(F)(F)C(F)(F)C(F)(F)C(F)(F)C(F)(F)F` [FC-143, C7 F15 COO^- H4 N^+], the “degradation after 1 year” value in series [10] was “no signs of degradation”. For the same compound, the “Latex Stability” value in series [5] (emulsifier 350 ppm) came to 2. In addition, in series [7], the “Surf. Tens.” value came to 21.5 dynes/cm and the CMC amounted to 8000 ppm. For the same compound, in series [8], the “Temperature for: 50% loss” value amounted to 188 °C, the “Temperature for: 90% loss” value was 202 °C and the “Temperature for: Onset” value is 173 °C.

As for `CCN(CC(=O)O)S(=O)(=O)C(F)(F)C(F)(F)C(F)(F)C(F)(F)C(F)(F)C(F)(F)C(F)(F)C(F)(F)F` [Fluorad ™ FC-128, C8 F17 SO2 N(C2 H5)CH2 COO^- K^+], the “Latex Stability” value in series [5] (emulsifier 100 ppm) worked out at 2; in series [5] (emulsifier 350 ppm) it was 0.
